Results taken from ChEMBL document CHEMBL5046233, “Nitroxoline and its derivatives are potent inhibitors of metallo-β-lactamases” (Eur J Med Chem, 2022).
Values after ≈ are worked out from the molar mass of the structure shown.

Key:
[1] = Inhibition of recombinant NDM-1 (unknown origin) using fluorocillin as substrate at 30 uM incubated for 30 mins by fluorescence based assay; conditions: Bacteria
[2] = Inhibition of recombinant NDM-1 (unknown origin) using fluorocillin as substrate at 10 uM incubated for 30 mins by fluorescence based assay; conditions: Bacteria
[3] = Inhibition of recombinant NDM-1 (unknown origin) using fluorocillin as substrate at 3 uM incubated for 30 mins by fluorescence based assay; conditions: Bacteria
Bacteria [4] = test: Inhibition of recombinant VIM-1 (unknown origin) using fluorocillin as substrate at 30 uM incubated for 30 mins by fluorescence based assay
Bacteria [5] = test: Inhibition of recombinant VIM-1 (unknown origin) using fluorocillin as substrate at 10 uM incubated for 30 mins by fluorescence based assay
Bacteria [6] = test: Inhibition of recombinant VIM-1 (unknown origin) using fluorocillin as substrate at 3 uM incubated for 30 mins by fluorescence based assay
Bacteria [7] = test: Inhibition of recombinant IMP-1 (unknown origin) using fluorocillin as substrate at 30 uM incubated for 30 mins by fluorescence based assay
Bacteria [8] = test: Inhibition of recombinant IMP-1 (unknown origin) using fluorocillin as substrate at 10 uM incubated for 30 mins by fluorescence based assay
Bacteria [9] = test: Inhibition of recombinant IMP-1 (unknown origin) using fluorocillin as substrate at 3 uM incubated for 30 mins by fluorescence based assay
Klebsiella pneumoniae = test: Antimicrobial activity against Klebsiella pneumoniae clinical isolate T2301 expressing NDM-1 assessed as inhibition of bacterial growth by CLSI protocol based broth microdilution assay; type: functional
Escherichia coli = test: Antimicrobial activity against Escherichia coli clinical isolate T2228 expressing VIM-1 assessed as inhibition of bacterial growth by CLSI protocol based broth microdilution assay; type: functional

SMILES	inhibition [1] [%]	inhibition [2] [%]	inhibition [3] [%]	inhibition (Bacteria [4]) [%]	inhibition (Bacteria [5]) [%]	inhibition (Bacteria [6]) [%]	inhibition (Bacteria [7]) [%]	inhibition (Bacteria [8]) [%]	inhibition (Bacteria [9]) [%]	MIC (Klebsiella pneumoniae) [mg/L]	MIC (Escherichia coli) [mg/L]
NC(=O)c1ccc([N+](=O)[O-])c2cccnc12	< 20	< 20	< 20	–	–	–	–	–	–	–	–
O=C(O)c1ccc(O)c2ncccc12	39	< 20	< 20	–	–	–	–	–	–	–	–
O=C(O)COc1cccc2cccnc12	< 20	< 20	< 20	–	–	–	–	–	–	–	–
O=C(O)CN(CCN(CC(=O)O)CC(=O)O)CC(=O)O	87	87	84	–	–	–	–	–	–	–	–
O=C(O)c1cc([N+](=O)[O-])c2cccnc2c1O	< 20	< 20	< 20	–	–	–	–	–	–	–	–
N#CCN(Cc1ccccc1)C(=O)c1ccc2cccc(O)c2n1	< 20	< 20	< 20	–	–	–	–	–	–	–	–
N#CCN(Cc1ccccc1)C(=O)c1ccc2c([N+](=O)[O-])cc([N+](=O)[O-])c(O)c2n1	< 20	< 20	< 20	–	–	–	–	–	–	–	–
O=C(O)c1ccc([N+](=O)[O-])c2cccnc12	< 20	< 20	< 20	–	–	–	–	–	–	–	–
O=C(c1cc([N+](=O)[O-])c2cccnc2c1O)N1CCOCC1	16	< 20	< 20	–	–	–	–	–	–	–	–
O=S(=O)(O)c1ccc(O)c2ncccc12	67	< 20	< 20	–	–	–	–	–	–	–	–
O=S(=O)(O)c1ccc(O)c2ccccc12	< 20	< 20	< 20	–	–	–	–	–	–	–	–
CN(CC#N)C(=O)c1ccc2cccc(O)c2n1	< 20	< 20	< 20	–	–	–	–	–	–	–	–
Cc1ccc2c(Cl)cc(Cl)c(O)c2n1	91	71	< 20	84	58	20	92	73	22	–	–
O=[N+]([O-])c1cc(CNCc2ccccc2)c(O)c2ncccc12	76	23	< 20	–	–	–	–	–	–	–	–
O=[N+]([O-])c1cc(O)c2ncccc2c1	95	< 20	< 20	–	–	–	–	–	–	–	–
Cc1ccc2c([N+](=O)[O-])cc([N+](=O)[O-])c(O)c2n1	< 20	< 20	< 20	–	–	–	–	–	–	–	–
C[C@@H](O)[C@H]1C(=O)N2C(C(=O)O)=C(S[C@@H]3CN[C@H](C(=O)N(C)C)C3)[C@H](C)[C@H]12 [MEROPENEM]	–	–	–	–	–	–	–	–	–	0.128 (≈ 0.334 µM)	0.008 (≈ 0.0209 µM)
CN(CC#N)Cc1ccc2c([N+](=O)[O-])ccc(O)c2n1	93	47	< 20	92	53	23	78	38	< 20	–	–
CN(CC#N)Cc1cc([N+](=O)[O-])c2cccnc2c1O	82	< 20	< 20	–	–	–	–	–	–	–	–
O=[N+]([O-])c1ccc(O)c2ccccc12	< 20	< 20	< 20	–	–	–	–	–	–	–	–

SMILES	inhibition [1] [%]	inhibition [2] [%]	inhibition [3] [%]	inhibition (Bacteria [4]) [%]	inhibition (Bacteria [5]) [%]	inhibition (Bacteria [6]) [%]	inhibition (Bacteria [7]) [%]	inhibition (Bacteria [8]) [%]	inhibition (Bacteria [9]) [%]	MIC (Klebsiella pneumoniae) [mg/L]	MIC (Escherichia coli) [mg/L]
CN(CC#N)C(=O)c1ccc2c([N+](=O)[O-])cc([N+](=O)[O-])c(O)c2n1	< 20	< 20	< 20	–	–	–	–	–	–	–	–
N#Cc1ccc2c([N+](=O)[O-])cc([N+](=O)[O-])c(O)c2n1	< 20	< 20	< 20	–	–	–	–	–	–	–	–
O=C(O)c1ccc2c([N+](=O)[O-])ccc(O)c2n1	100	95	20	99	99	70	99	96	74	–	–
Nc1c(O)cc(S(=O)(=O)O)c2ccccc12	< 20	< 20	< 20	–	–	–	–	–	–	–	–
Oc1ccc2cccc(O)c2n1	< 20	< 20	< 20	–	–	–	–	–	–	–	–
CN(CC#N)C(=O)c1ccc2c([N+](=O)[O-])ccc(O)c2n1	< 20	< 20	< 20	–	–	–	–	–	–	–	–
CCNCc1cc([N+](=O)[O-])c2cccnc2c1O	88	40	< 20	98	53	< 20	92	53	< 20	–	–
N#CCNC(=O)c1ccc2cccc(O)c2n1	< 20	< 20	< 20	–	–	–	–	–	–	–	–
O=C(O)c1cc(O)c2ncccc2c1	< 20	< 20	< 20	–	–	–	–	–	–	–	–
CN(C)Cc1ccc2c(Cl)cc(Cl)c(O)c2n1	69	< 20	< 20	–	–	–	–	–	–	–	–
N#CCNC(=O)c1ccc2c([N+](=O)[O-])ccc(O)c2n1	< 20	< 20	< 20	–	–	–	–	–	–	–	–
CN(C)Cc1ccc2c([N+](=O)[O-])ccc(O)c2n1	< 20	< 20	< 20	–	–	–	–	–	–	–	–
N#CCOc1ccc([N+](=O)[O-])c2cccnc12	< 20	< 20	< 20	–	–	–	–	–	–	–	–
Oc1ccc(F)c2cccnc12	< 20	< 20	< 20	–	–	–	–	–	–	–	–
N#Cc1ccc2ccc([N+](=O)[O-])c(O)c2n1	< 20	< 20	< 20	–	–	–	–	–	–	–	–
O=C(O)C[C@H](NCCN[C@@H](CC(=O)O)C(=O)O)C(=O)O	86	84	84	–	–	–	–	–	–	–	–
Oc1ccc(C(F)(F)F)c2cccnc12	< 20	< 20	13	–	–	–	–	–	–	–	–
Oc1c(Cl)cc(Cl)c2cccnc12	99	98	< 20	97	90	23	97	95	34	–	–
Nc1c([N+](=O)[O-])cc([N+](=O)[O-])c2cccnc12	< 20	< 20	< 20	–	–	–	–	–	–	–	–
N#CCNCc1cc([N+](=O)[O-])c2cccnc2c1O	98	89	64	99	99	95	96	91	43	–	–

SMILES	inhibition [1] [%]	inhibition [2] [%]	inhibition [3] [%]	inhibition (Bacteria [4]) [%]	inhibition (Bacteria [5]) [%]	inhibition (Bacteria [6]) [%]	inhibition (Bacteria [7]) [%]	inhibition (Bacteria [8]) [%]	inhibition (Bacteria [9]) [%]	MIC (Klebsiella pneumoniae) [mg/L]	MIC (Escherichia coli) [mg/L]
N#Cc1ccc2cccc(O)c2n1	< 20	< 20	< 20	–	–	–	–	–	–	–	–
CC(C)(O/N=C(\C(=O)N[C@@H]1C(=O)N2C(C(=O)[O-])=C(C[n+]3ccccc3)CS[C@H]12)c1csc(N)n1)C(=O)O [CEFTAZIDIME]	–	–	–	–	–	–	–	–	–	4.1 (≈ 7.49 µM)	0.256 (≈ 0.468 µM)
Cc1ccc2cccc(O)c2n1	< 20	< 20	< 20	–	–	–	–	–	–	–	–
O=C(O)c1ccc2c([N+](=O)[O-])cc([N+](=O)[O-])c(O)c2n1	96	90	< 20	86	57	34	91	47	< 20	–	–
CCN1CCN(C(=O)N[C@@H](C(=O)N[C@@H]2C(=O)N3[C@@H]2SC(C)(C)[C@@H]3C(=O)O)c2ccccc2)C(=O)C1=O [PIPERACILLIN]	–	–	–	–	–	–	–	–	–	4.1 (≈ 7.91 µM)	1.02 (≈ 1.98 µM)
CC(=O)Nc1ccc([N+](=O)[O-])c2cccnc12	< 20	< 20	< 20	–	–	–	–	–	–	–	–
N#CC1(NC(=O)c2ccc3c([N+](=O)[O-])ccc(O)c3n2)CC1	< 20	< 20	< 20	–	–	–	–	–	–	–	–
O=[N+]([O-])c1ccc(N2CCCC2)c2ncccc12	< 20	< 20	< 20	–	–	–	–	–	–	–	–
O=C(O)c1ccc2cccc(O)c2n1	100	97	24	91	54	32	95	72	27	–	–
Nc1ccc2cccc(O)c2n1	< 20	< 20	< 20	–	–	–	–	–	–	–	–
c1cnc2c(c1)ccc1cccnc12	68	< 20	< 20	–	–	–	–	–	–	–	–
N#CC1(NC(=O)c2cc([N+](=O)[O-])c3cccnc3c2O)CC1	< 20	< 20	< 20	–	–	–	–	–	–	–	–
Nc1ccc2c([N+](=O)[O-])ccc(O)c2n1	93	46	< 20	72	37	20	74	38	< 20	–	–
N#CCN(Cc1ccccc1)C(=O)c1ccc2c([N+](=O)[O-])ccc(O)c2n1	< 20	< 20	< 20	–	–	–	–	–	–	–	–
Oc1ccc(Cl)c2cccnc12	60	< 20	< 20	–	–	–	–	–	–	–	–
O=[N+]([O-])c1cc([N+](=O)[O-])c2cccnc2c1O	< 20	< 20	< 20	–	–	–	–	–	–	–	–
Cc1cc(C)c2cccnc2c1O	< 20	< 20	< 20	–	–	–	–	–	–	–	–
Cc1ccc2c([N+](=O)[O-])ccc(O)c2n1	35	< 20	< 20	–	–	–	–	–	–	–	–
